Active and inactive are the calls of the source.
Key:
[1] = intracellular Trypanosoma cruzi inhibitors in host cells – cell-based, plate reader, cherry-pick samples, set 3, dose response (AID 651818); type: functional;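 also: compounds incubated with infected cells for about four days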
[2] = biological target: T1, Sentrin-specific protease 6 (Homo sapiens, UniProt Q9GZR1); type: functional;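 also: Luminescence-based dose-response confirmatory assay of SENP6 inhibition, following up an ultra-high-throughput screen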
T1 sequence (Q9GZR1 whole entry): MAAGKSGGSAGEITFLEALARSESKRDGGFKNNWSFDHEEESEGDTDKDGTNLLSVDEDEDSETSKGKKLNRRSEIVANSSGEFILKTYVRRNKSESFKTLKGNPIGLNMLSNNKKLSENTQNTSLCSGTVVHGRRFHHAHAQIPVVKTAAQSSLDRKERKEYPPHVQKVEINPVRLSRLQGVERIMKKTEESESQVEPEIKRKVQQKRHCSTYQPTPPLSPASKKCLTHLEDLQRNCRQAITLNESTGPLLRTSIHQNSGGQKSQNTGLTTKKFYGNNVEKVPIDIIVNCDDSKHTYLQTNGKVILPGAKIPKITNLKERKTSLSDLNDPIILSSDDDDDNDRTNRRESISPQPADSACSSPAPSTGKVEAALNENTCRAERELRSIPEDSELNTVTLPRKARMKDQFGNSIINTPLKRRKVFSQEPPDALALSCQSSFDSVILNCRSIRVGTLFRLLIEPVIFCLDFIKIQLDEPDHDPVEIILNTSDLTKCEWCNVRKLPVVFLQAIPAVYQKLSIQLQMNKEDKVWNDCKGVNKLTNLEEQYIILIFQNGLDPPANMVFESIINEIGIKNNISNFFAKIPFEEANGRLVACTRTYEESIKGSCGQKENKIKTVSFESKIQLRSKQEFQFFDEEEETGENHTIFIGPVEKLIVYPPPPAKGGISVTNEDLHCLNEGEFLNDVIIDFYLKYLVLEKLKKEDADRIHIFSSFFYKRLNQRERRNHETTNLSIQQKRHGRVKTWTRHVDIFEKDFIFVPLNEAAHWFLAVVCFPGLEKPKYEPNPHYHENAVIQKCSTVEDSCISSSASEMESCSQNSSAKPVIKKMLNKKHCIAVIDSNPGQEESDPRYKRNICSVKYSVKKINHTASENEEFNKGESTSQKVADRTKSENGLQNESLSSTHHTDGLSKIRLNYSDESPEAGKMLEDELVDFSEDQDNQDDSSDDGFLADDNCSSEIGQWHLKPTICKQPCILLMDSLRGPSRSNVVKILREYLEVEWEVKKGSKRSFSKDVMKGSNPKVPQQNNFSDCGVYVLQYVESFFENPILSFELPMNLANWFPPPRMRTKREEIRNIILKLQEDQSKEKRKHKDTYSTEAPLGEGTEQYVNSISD

[3] = biological target: T2, Sentrin-specific protease 7 (Homo sapiens, UniProt Q9BQF6); type: functional;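 also: Luminescence-based dose-response confirmation of ultra-high-throughput screening hits, measuring inhibition of SENP7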
T2 sequence (Q9BQF6 whole entry): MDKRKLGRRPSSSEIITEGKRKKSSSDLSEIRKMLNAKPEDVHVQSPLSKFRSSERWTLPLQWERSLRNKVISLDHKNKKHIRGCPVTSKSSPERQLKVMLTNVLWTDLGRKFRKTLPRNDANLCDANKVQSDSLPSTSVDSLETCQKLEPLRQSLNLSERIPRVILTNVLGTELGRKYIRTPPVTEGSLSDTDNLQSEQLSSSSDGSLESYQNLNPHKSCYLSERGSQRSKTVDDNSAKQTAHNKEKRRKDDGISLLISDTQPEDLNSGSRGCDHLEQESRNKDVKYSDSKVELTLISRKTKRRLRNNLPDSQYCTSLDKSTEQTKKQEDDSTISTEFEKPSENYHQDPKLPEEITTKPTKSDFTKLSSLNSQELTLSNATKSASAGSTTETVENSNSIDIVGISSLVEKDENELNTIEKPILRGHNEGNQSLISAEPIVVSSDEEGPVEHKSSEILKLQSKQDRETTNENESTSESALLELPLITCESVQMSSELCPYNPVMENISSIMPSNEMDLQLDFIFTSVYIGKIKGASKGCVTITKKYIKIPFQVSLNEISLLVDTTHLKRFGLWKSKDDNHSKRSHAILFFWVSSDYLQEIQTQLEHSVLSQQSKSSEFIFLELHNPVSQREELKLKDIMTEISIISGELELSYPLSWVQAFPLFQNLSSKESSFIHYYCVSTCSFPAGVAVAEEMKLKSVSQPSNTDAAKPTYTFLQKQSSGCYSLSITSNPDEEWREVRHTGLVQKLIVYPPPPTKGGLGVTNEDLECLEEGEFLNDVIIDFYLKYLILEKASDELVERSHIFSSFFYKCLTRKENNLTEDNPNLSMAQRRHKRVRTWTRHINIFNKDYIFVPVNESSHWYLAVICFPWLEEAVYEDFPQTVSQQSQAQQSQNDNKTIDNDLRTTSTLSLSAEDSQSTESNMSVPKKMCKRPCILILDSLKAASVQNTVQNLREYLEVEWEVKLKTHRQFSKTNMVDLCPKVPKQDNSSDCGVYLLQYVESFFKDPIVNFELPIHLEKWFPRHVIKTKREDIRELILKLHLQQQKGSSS

[4] = biological target: T3, Caspase-3 (Homo sapiens, UniProt P42574); type: functional;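 also: Dose-response selectivity test against caspase-3 for candidate inhibitors of sentrin-specific proteases (SENPs)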
T3 sequence (P42574 whole entry): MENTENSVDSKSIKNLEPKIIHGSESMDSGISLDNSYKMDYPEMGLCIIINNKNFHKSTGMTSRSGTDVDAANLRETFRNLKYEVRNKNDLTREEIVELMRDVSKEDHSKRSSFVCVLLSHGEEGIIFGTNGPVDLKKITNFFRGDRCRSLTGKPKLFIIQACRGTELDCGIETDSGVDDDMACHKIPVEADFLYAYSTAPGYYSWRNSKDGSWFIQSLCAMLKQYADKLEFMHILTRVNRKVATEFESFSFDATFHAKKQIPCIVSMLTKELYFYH

[5] = biological target: T4, Sentrin-specific protease 8 (Homo sapiens, UniProt Q96LD8); type: functional;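 also: luminescence read-out of SENP8 inhibition, dose-response confirmation following an ultra-high-throughput screen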
T4 sequence (Q96LD8 whole entry): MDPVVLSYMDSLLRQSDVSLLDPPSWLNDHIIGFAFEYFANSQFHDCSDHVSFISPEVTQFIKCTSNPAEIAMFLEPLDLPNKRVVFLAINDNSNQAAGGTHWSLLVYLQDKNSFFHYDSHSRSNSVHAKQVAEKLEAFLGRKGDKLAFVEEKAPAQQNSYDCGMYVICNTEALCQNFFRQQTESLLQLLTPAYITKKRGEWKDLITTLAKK

[6] = biological target: Genome polyprotein (dengue virus type 2, UniProt P29990); test: Dengue-2 NS5 methyltransferase inhibitors, primary screen, biochemical, confirmation dose response (AID 588689); type: functional
[7] = system: Streptococcus sp. 'group A'; test: growth inhibition of control SK(-) GAS strain, dose response, counter-screen for streptokinase expression inhibitor project, luminescence, kanamycin, BacTiterGlo, confirmation (AID 1900); type: functional, organism-based
[8] = system: Vero; test: cells; type: functional; conditions: Chlorocebus sabaeus
[9] = system: Streptococcus; test: Group A Streptococcus viability loss, dose response, counter-screen for streptokinase expression inhibitor project, luminescence, BacTiterGlo (AID 1915); type: functional, organism-based;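 also: potency for reduction of bacterial viability or growth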
[10] = HEp-2 cell cytotoxicity, dose response, cytotoxicity control for RSV inhibitor project, HTS (AID 2410); type: functional; conditions: human respiratory syncytial virus
[11] = biological target: T5, Streptokinase A (Streptococcus pyogenes serotype M1, UniProt P10520); test: S. pyogenes streptokinase expression inhibitors, potency, dose response, plasminogen activation absorbance, OD405 (AID 1914); type: functional, Streptococcus pyogenes M1 GAS;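 also: secreted streptokinase activity via plasminogen activation per viability signal from cell pellet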
T5 sequence (P10520 whole entry): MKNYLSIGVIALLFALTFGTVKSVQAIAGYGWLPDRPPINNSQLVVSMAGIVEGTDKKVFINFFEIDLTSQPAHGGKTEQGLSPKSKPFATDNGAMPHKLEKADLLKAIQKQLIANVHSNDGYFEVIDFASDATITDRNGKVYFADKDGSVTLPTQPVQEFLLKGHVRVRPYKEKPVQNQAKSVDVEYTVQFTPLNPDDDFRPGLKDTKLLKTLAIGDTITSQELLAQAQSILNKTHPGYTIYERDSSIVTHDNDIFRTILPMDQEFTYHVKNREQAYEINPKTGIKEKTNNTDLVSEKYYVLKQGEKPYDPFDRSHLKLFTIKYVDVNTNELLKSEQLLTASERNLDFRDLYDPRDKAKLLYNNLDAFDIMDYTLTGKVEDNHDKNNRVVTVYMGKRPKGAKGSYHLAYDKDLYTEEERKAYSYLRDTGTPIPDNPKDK

[12] = biological target: T6, Calpain-2 catalytic subunit (Sus scrofa, UniProt P43367); test: pig calpain II inhibitor potency, dose response, biochemical, fluorogenic peptide substrate (AID 1420); type: functional
T6 sequence (P43367 whole entry): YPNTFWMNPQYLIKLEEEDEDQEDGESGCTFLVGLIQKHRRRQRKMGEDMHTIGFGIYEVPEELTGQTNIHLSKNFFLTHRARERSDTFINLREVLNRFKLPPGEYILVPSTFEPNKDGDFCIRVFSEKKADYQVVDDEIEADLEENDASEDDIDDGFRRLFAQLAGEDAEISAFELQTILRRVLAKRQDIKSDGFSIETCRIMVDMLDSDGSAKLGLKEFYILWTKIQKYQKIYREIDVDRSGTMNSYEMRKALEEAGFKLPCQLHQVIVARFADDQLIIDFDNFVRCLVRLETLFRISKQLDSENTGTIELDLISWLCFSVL

[13] = biological target: T7, Cytochrome P450 1A2 (Homo sapiens, UniProt P05177);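 also: PubChem cytochrome P450 panel assay, CYP1A2 panel member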
T7 sequence (P05177 whole entry): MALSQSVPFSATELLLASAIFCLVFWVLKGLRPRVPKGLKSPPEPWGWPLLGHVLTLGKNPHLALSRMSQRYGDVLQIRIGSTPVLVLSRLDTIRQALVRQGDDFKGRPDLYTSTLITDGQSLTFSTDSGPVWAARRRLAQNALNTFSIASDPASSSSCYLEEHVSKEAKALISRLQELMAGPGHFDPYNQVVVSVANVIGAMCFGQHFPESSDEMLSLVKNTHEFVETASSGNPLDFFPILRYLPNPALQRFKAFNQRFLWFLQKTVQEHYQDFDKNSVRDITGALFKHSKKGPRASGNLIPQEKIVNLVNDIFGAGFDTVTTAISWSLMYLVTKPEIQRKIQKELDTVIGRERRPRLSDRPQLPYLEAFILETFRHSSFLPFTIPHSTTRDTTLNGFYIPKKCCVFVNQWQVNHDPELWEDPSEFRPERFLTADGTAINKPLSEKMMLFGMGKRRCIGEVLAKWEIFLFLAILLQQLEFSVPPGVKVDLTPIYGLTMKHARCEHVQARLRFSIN

[14] = biological target: Cytochrome P450 2C9 (Homo sapiens, UniProt P11712)
[15] = biological target: Eukaryotic translation initiation factor 4E (Mus musculus, UniProt P63073); test: eIF4E–eIF4G protein interaction inhibitors, dose response, biochemical, TR-FRET (AID 855); type: functional;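 also: potency for disrupting eIF4E binding to eIF4GI seen as loss of FRET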
[16] = biological target: T8, Polyadenylate-binding protein 1 (Homo sapiens, UniProt P11940); test: PABP1 MLLE–PAM2 interaction inhibitors, dose response, miRNA deadenylation inhibitor project, biochemical, fluorescence polarization, Cy5-PAM2 peptide, secondary (AID 602260); type: functional; conditions: read-out: IC50_Mean
[17] = biological target: T8, Polyadenylate-binding protein 1; test: PABP1 MLLE–PAM2 binding inhibitor potency, dose response, biochemical, fluorescence polarization, FITC-PAM2 peptide (AID 602259); type: functional; conditions: read-out: IC50_Mean
[18] = biological target: Cytochrome P450 2D6 (Homo sapiens, UniProt P10635);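 also: CYP2D6 member of a cytochrome P450 panel assay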
Cytochrome P450 2D6, sequence (P10635 whole entry): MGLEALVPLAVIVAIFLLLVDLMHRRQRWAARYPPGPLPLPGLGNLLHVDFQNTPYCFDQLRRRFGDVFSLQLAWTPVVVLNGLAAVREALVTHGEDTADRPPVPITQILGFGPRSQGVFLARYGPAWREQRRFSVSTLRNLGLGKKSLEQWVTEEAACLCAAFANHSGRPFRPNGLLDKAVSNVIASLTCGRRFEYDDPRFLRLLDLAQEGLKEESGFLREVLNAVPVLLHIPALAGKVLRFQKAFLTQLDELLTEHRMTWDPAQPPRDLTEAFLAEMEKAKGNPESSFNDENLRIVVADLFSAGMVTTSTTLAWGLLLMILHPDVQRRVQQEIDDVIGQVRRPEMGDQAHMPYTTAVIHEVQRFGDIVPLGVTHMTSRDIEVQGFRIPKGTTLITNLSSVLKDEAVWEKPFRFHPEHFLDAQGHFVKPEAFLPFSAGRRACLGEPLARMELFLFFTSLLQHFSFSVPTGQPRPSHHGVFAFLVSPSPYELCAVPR

Genome polyprotein, sequence (P29990 2492-3391 limits assumed): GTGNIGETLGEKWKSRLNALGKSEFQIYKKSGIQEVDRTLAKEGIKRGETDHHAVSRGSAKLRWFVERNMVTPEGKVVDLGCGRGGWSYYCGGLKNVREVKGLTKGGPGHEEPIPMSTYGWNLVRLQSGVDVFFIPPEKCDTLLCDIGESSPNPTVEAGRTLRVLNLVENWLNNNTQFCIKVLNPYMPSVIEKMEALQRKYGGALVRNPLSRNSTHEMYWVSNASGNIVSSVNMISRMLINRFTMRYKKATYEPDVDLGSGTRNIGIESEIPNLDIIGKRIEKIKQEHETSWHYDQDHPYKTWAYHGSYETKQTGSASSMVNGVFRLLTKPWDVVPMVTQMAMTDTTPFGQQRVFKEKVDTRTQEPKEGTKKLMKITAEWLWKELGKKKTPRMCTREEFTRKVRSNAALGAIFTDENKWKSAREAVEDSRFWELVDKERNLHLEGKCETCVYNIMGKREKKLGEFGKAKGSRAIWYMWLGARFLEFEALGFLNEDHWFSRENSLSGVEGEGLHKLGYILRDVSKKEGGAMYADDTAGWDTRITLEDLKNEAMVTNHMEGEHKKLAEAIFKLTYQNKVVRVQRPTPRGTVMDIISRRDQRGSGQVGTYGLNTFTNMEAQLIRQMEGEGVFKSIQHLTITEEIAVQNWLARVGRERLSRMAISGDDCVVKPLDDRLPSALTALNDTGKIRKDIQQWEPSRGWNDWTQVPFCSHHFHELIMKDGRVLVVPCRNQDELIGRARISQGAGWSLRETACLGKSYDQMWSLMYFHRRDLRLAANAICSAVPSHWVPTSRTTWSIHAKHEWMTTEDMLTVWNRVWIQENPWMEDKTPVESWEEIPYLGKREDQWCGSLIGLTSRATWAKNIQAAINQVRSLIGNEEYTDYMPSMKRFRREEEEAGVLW
Cytochrome P450 2C9, sequence (P11712 whole entry): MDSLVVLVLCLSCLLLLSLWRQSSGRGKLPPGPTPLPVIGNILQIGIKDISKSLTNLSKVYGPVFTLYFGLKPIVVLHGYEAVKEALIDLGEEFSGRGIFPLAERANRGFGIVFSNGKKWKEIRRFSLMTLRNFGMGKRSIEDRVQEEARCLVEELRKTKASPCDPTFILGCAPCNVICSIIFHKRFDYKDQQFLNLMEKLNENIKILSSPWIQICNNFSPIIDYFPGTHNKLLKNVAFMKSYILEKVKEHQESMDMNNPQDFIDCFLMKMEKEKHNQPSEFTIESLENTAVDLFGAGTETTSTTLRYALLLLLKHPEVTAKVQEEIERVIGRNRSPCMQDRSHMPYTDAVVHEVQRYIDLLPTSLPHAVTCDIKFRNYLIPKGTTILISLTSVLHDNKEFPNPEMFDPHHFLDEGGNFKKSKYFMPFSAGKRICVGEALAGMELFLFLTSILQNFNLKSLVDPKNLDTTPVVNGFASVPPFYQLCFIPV
T8 sequence (P11940 whole entry): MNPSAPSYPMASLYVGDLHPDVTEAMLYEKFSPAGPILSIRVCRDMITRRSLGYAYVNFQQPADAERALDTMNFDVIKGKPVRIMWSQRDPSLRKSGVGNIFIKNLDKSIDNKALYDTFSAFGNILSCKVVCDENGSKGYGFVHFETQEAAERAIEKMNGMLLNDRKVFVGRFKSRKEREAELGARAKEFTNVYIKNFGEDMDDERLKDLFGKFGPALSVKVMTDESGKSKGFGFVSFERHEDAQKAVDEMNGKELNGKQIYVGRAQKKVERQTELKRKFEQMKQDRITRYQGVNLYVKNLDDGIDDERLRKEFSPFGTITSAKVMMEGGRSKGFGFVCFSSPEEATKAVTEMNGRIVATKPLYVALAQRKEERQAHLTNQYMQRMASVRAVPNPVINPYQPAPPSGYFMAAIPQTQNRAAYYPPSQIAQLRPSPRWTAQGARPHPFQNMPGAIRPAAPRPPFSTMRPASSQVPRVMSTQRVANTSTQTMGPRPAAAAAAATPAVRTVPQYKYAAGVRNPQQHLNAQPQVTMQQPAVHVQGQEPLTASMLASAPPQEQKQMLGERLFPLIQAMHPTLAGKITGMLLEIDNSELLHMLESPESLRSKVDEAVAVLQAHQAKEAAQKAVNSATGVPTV
Eukaryotic translation initiation factor 4E, sequence (P63073 whole entry): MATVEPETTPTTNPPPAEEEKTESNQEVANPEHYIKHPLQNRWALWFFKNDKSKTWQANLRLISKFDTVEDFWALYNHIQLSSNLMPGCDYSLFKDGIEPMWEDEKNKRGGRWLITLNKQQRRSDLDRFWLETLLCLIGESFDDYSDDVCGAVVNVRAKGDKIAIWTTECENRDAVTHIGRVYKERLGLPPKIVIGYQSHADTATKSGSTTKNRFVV

C[C@H](CO)N1C[C@H](C)[C@@H](CN(C)CC2CCCCC2)Oc2c(NC(=O)c3nc4ccccc4s3)cccc2C1=O
AC50 [1]: 1.21 µM (active)

COc1ccc(C(=N)NOC(=O)C2CCCCC2)cc1
IC50 [2]: 29.6 µM (active)
IC50 [3]: 9.16 µM (active)
IC50 [4]: 28.4 µM (active)
IC50 [5]: 44.1 µM (active)

O=C1NC(=O)N(c2ccc(F)cc2)C(=O)/C1=C/c1ccc(N2CCOCC2)cc1
IC50 [6]: > 100 µM (active)

C[C@@H]1CCCCO[C@@H](CN(C)CC2CCCCC2)[C@@H](C)CN([C@H](C)CO)C(=O)c2cc(NC(=O)Nc3ccccc3)ccc2O1
AC50 [1]: 2.55 µM (active)

COc1ccc2oc(=O)c(-c3csc(Nc4ccc(O)cc4)n3)cc2c1
EC50 [7]: 7.11 µM (active)
CC50 [8]: 13.3 µM (active)
EC50 [9]: 13.8 µM (active)
CC50 [10]: 38.5 µM (active)
EC50 [11]: > 150 µM (not active)

Cc1cc(C(=O)Nc2ccc(N3CCCC3)c(Cl)c2)ccc1[N+](=O)[O-]
IC50 [2]: > 100 µM (inactive)
IC50 [3]: 5.48 µM (active)
IC50 [4]: 28.2 µM (active)
IC50 [5]: > 100 µM (inactive)
IC50 [12]: 2.99 µM (not active)

O=[N+]([O-])c1ccc(O)c(/C=N/c2ccc3c(c2)OCO3)c1
IC50 [6]: 41.9 µM (active)

C#CCN1C(=O)S/C(=C\c2ccc(-c3ccc(Cl)c(C(=O)O)c3)o2)C1=O
IC50 [2]: 11.6 µM (active)
IC50 [3]: 7.59 µM (active)
EC50 [7]: 2.41 µM (active)
IC50 [4]: 29.6 µM (active)
EC50 [9]: 5.9 µM (active)
IC50 [5]: 14.9 µM (active)

CCOC(=O)c1c(C)oc2c1cc(NS(=O)(=O)c1ccc(C(=O)O)cc1)c1ccccc12
IC50 [6]: 73.8 µM (active)

Cc1cccc(-n2cnc(C(=O)NC3CCCCCC3)c2)n1
AC50 [13]: 11.2 µM (inconclusive)
AC50 [14]: inconclusive
IC50 [15]: > 64 µM (inactive)

COc1cccc(/C=C2\SC(=S)N(CCC(=O)NC3C=CS(=O)(=O)C3)C2=O)c1 (stereo not given)
CC50 [8]: 23.8 µM (active)

COc1cccc(-c2nc(=S)c3c(o2)CCCC3)c1
IC50 [16]: > 66 µM (inactive)
IC50 [2]: 20.5 µM (active)
IC50 [3]: 8.32 µM (active)
IC50 [4]: 24.9 µM (active)
IC50 [17]: > 66 µM (inactive)
IC50 [5]: 27.4 µM (active)

C[C@@H]1CN([C@H](C)CO)C(=O)c2cccc(N(C)C)c2O[C@H]1CN(C)Cc1ccc(Oc2ccccc2)cc1
AC50 [1]: 2.51 µM (active)

C[C@H](CO)N1C[C@H](C)[C@H](CN(C)Cc2ccc(C(=O)Nc3ccccc3N)cc2)Oc2ccc(NC(=O)Nc3ccc4c(c3)OCO4)cc2CC1=O
AC50 [1]: 2.08 µM (active)

O=C(CCN1C(=O)C2C3C=CC(C3)C2C1=O)NCCN1CCCc2ccccc21 (stereo not given)
AC50 [13]: 10 µM (inconclusive)
AC50 [14]: inconclusive
AC50 [18]: 22.4 µM (inconclusive)
